Source: patent US12714700B2 (priority 2017, dated 2026)

Tested on: ob/ob mice
Details: cohort 2 (HFD conditioning, then 50 mg/kg), relative to untreated controls

N#Cc1ccc2nnc(C(=O)N3CCC(c4cccc(F)c4C(F)(F)F)CC3)n2c1 [Compound 2, 3-(4-(3-fluoro-2-(trifluoromethyl)phenyl)piperidine-1-carbonyl)-[1,2,4]triazolo[4,3-a]pyridine-6-carbonitrile]
NASH fibrosis scores: reduction
amount of bridging fibrosis: decrease
